Data set [1] relates to ApoB secretion, HepG2 cells. Put plainly: Quantification of the secretion of ApoB (HepG2 cells, immunoprecipitation, scintillation counting). The format is cell-based. Particulars: 24 hours of incubation; for IC50: Homo sapiens, HepG2, 24 h. Put shortly:
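HepG2 cells in MEM Rega 3 with 10% FCS were treated at 70% confluency with compound (DMSO 0.4% final) for 24 h. Medium ApoB was immunoprecipitated with sheep anti-apoB then rabbit anti-sheep antibody (24 h each, 8° C), and pellet radioactivity was counted by liquid scintillation to give IC50.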

The next data set addresses MTP (Homo sapiens, UniProt P55157). Put plainly: MTP assay (triglyceride transfer from donor to acceptor vesicles). Particulars: MTP activity, 37° C. In kind it is biochemical. As for the experimental part:
MTP activity was measured using an assay similar to one described by J. R. Wetterau and D. B. Zilversmit in Chemistry and Physics of Lipids (1985) 38, 205-222. In order to prepare the donor and acceptor vesicles, the appropriate lipids in chloroform were put into a glass test tube and dried under a stream of nitrogen. A buffer containing 15 mM Tris-HCl (pH 7.5), 1 mM ethylenediamine tetra-acetic acid, 40 mM NaCl, 0.02% NaN3 (assay buffer) was added to the dried lipid. The mixture was vortexed briefly and the lipids were then allowed to hydrate for 20 minutes on ice. Vesicles were then prepared by bath sonication (using a Branson 2200 device) at room temperature for at most 15 minutes. Butylated hydroxytoluene was included in all vesicle preparations at a concentration of 0.1%. The lipid transfer assay mixture contained donor vesicles (40 nmole phosphatidylcholine, 7.5 mole % cardiolipin and 0.25 mole % glycerol tri[1-^14C]-oleate), acceptor vesicles (240 nmol phosphatidylcholine) and 5 mg bovine serum albumin in a total volume of 675 μl in a 1.5 ml microcentrifuge tube. Test compounds were added dissolved in dimethylsulfoxide (0.13% final concentration). After 5 minutes of pre-incubation at 37° C., the reaction was started by the addition of MTP in 100 μl of a dialysis buffer. The reaction was stopped by the addition of 400 μl […] (DEAE)-52 cellulose (Sephadex) pre-equilibrated in 15 mM Tris-HCl (pH 7.5), 1 mM ethylenediamine tetra-acetic acid and 0.02% NaN3 (1:1 volume/volume). The mixture was agitated for 4 minutes and centrifuged for 2 minutes at maximum speed in an Eppendorf centrifuge (4° C.) to pellet the DEAE-52-bound donor vesicles. An aliquot of the supernatant containing the acceptor liposomes was counted and the [^14C]-counts were used to calculate the percent triglyceride transfer from donor to acceptor vesicles.
Resulting IC50 values are enumerated in Table C.2 for some of the above-referred compounds.

Sequence of MTP (P55157 19-894, species assumed): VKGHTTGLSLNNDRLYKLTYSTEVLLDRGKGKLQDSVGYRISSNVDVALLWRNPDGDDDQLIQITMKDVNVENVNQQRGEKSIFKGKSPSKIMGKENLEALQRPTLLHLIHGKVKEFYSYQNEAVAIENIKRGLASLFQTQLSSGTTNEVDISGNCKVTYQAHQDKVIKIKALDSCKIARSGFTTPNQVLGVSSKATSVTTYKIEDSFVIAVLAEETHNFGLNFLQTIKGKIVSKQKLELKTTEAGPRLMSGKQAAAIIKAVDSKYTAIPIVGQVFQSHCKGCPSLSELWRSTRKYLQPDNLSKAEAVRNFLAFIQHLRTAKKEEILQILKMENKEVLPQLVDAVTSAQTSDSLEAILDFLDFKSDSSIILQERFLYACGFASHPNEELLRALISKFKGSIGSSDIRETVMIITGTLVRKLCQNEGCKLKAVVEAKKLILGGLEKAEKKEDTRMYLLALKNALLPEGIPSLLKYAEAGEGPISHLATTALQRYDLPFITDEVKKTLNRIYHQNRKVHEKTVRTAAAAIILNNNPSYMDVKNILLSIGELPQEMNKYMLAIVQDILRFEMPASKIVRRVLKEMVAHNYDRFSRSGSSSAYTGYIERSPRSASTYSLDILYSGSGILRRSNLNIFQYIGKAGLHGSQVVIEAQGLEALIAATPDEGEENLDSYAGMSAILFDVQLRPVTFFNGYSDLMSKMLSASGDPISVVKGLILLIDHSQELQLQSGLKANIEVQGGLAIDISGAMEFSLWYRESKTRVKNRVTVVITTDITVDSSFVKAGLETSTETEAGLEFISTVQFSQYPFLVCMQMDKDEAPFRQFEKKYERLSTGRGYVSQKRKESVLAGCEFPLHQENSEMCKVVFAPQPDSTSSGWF
Sequence of MTP (P07237 18-508 partner, species assumed): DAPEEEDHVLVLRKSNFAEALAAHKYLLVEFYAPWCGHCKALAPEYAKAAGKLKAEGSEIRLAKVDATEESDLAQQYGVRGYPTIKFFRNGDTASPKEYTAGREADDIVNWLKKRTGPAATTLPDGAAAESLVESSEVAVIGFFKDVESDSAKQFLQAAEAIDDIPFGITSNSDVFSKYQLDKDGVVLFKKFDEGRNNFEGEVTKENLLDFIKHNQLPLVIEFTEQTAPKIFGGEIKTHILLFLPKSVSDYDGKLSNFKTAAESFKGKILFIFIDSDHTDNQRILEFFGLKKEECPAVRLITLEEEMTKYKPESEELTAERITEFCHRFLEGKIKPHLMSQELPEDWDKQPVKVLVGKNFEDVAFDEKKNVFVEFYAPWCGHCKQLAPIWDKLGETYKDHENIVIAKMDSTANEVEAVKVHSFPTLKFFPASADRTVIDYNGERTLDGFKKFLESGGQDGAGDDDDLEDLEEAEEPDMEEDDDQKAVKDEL

In the case of `COC(=O)C(c1ccccc1)N1CCC(c2ccc(NC(=O)c3ccccc3-c3ccc(C(F)(F)F)cc3)cc2)CC1` (stereo not shown) [Co. No. 41, methylphenyl-4-[4-[[[4′-(trifluoromethyl)[1,1′-biphenyl]-2-yl]carbonyl]amino]phenyl]-1-piperidineacetate], the melting point came to 138 °C. This compound also showed a 50% inhibitory concentration (IC50) in data set [1] of 21.6 nM. On MTP, this compound showed an IC50 of 8.65 nM.
For `COC(=O)C(c1ccccc1)N1CCN(c2ccc(NC(=O)c3ccccc3-c3ccsc3)cc2)CC1` (stereo not shown) [Co. No. 267], the melting point worked out at 150 °C.
In the case of `CCCOC(=O)C(c1ccccc1)N1CCN(c2ccc(NC(=O)c3ccccc3-c3ccc(C(F)(F)F)cc3)cc2)CC1` (stereo not shown) [Co. No. 62, propyl-phenyl-4-[4-[[[4′-(trifluoromethyl)[1,1′-biphenyl]-2-yl]carbonyl]amino]phenyl]-1-piperazineacetate], the melting point was 151 °C. Besides, half-maximal inhibition in data set [1] (IC50) was put at 64.6 nM. Besides, at MTP, the IC50 was 10.5 nM.
Consider `COC(=O)C(c1ccccc1)N1CCN(c2ccc(NC(=O)c3ccccc3-c3ccccc3)cc2)CC1` (stereo not drawn) [Co. No. 52, methyl 4-[4-[([1,1′-biphenyl]-2-ylcarbonyl)amino]phenyl]-α-phenyl-1-piperazineacetate], for which the melting point was found to be 125 °C. In data set [1], the midpoint of inhibition, the IC50, lay at 294 nM.
As for `COC(=O)C(c1ccccc1)N1CCC(c2ccc(NC(=O)c3ccccc3-c3ccc(C(F)(F)F)cc3)cc2)CC1` (single isomer, unassigned) [Co. No. 229], the melting point came out at 158 °C. Also, the pIC50 in data set [1] is recorded as 7.409. The compound further had an IC50 against MTP of 52.6 nM.
`O=C(Nc1ccc(N2CCC(C(C(=O)NCc3ccccc3)c3ccccc3)CC2)cc1)c1cccc2c1-c1ccccc1C2` (stereo not shown) [Co. No. 2]: the melting point was 202 °C. For the same compound, 106 nM corresponded to half-maximal inhibition in data set [1] (IC50).
On to `O=C(Nc1ccc(N2CCN(C(C(=O)NCC(F)(F)F)c3ccccc3)CC2)cc1)c1ccccc1-c1ccc(C(F)(F)F)cc1` (stereo not shown) [Co. No. 1, N-[4-[4-[2-oxo-1-phenyl-2-[(2,2,2-trifluoroethyl)amino]ethyl]-1-piperazinyl]-phenyl]-4′-(trifluoromethyl)-[1,1′-biphenyl]-2-carboxamide], for which the melting point was determined as 208 °C. In data set [1], the half-inhibitory concentration (IC50) was 7.89 nM. The same compound had an IC50 against MTP of 13.7 nM.
`CCOC(=O)C(CN1CCN(c2ccc(NC(=O)c3ccccc3-c3ccc(C(F)(F)F)cc3)cc2)CC1)c1ccccc1` (stereo not shown) [Co. No. 81, ethylphenyl-4-[4-[[[4′-(trifluoromethyl)[1,1′-biphenyl]-2-yl]carbonyl]amino]-phenyl]-1-piperazine propanoate] came in with a melting point of 195 °C. In data set [1], this compound had an IC50 of 178 nM.
As to `COC(=O)C(c1ccccc1)C1CCN(c2ccc(NC(=O)c3ccccc3-c3ccc(C(F)(F)F)cc3)cc2)CC1` (stereo not drawn) [Co. No. 39, methyl α-phenyl-1-[4-[[[4′-(trifluoromethyl)-[1,1′-biphenyl]-2-yl]carbonyl]amino]phenyl]-4-piperidineacetate], the melting point amounted to 151 °C. The compound further showed a pIC50 in data set [1] (listed as 39) of 7.791. The same compound had an IC50 against MTP of 12 nM.
On to `O=C(Nc1ccc(N2CCC(C(C(=O)NCc3ccccc3)c3ccccc3)CC2)cc1)c1ccccc1CSc1ccccc1` (stereo not shown) [Co. No. 6], for which the IC50 in data set [1] is 108 nM; at MTP, 198 nM.
On to `CCNC(=O)C(c1ccccc1)N1CCN(c2ccc(NC(=O)c3ccccc3-c3ccc(C(F)(F)F)cc3)cc2)CC1` (stereo not shown) [Co. No. 54, N-[4-[4-[2-(ethylamino)-2-oxo-1-phenylethyl]-1-piperazinyl]phenyl]-4′-(trifluoromethyl)-[1,1′-biphenyl]-2-carboxamide], for which the melting point was found to be 123 °C. In data set [1], the IC50 is 7.89 nM. On MTP, this compound gave an IC50 of 5.38 nM.
In the case of `COC(=O)C(c1ccccc1)N1CCN(c2ccc(NC(=O)c3ccccc3-c3cccnc3)cc2)CC1` (stereo not shown) [Co. No. 270], the melting point stood at 194 °C.

These data come from patent US8354402B2, “Polyarylcarboxamides useful as lipid lowering agents” (Janssen Pharmaceutica N.V., priority 2000, dated 2013).
